Assay results reported in PMC3341351, “Down-Regulation of GABAA Receptor via Promiscuity with the Vasoactive Peptide Urotensin II Receptor. Potential Involvement in Astrocyte Plasticity” (PLoS ONE, 2012).

Experiments:
Type in all cases: cell-based
[1] = tested on: UT in native human astrocytes; assay: Flow cytometry of cell surface UT in native human astrocytes; conditions: hUII 10^−8 M, 30 min
Description: (§1) The human cell line from glioblastoma U87 was obtained from the American Type Culture Collection (LGC Standards, Molsheim, France). U87 cells were maintained in DMEM containing 10% FBS and 1% sodium pyruvate. NHA-Astrocytes (Lonza, Walkersville, MD, USA) were cultivated in DMEM culture medium supplemented with 2 mM glutamine, 5 mM HEPES, 1% non essential amino acids, 1% sodium pyruvate, B27, 25 ng/ml EGF, 1% of the antibiotic-antimycotic solution and 10% FBS. All cells were incubated at 37°C in a humidified atmosphere containing 5% CO2. Culture media were replaced every three days.
(§2) Human astrocytes and glioma U87 grown in 75-cm2 flasks until confluence were washed in PBS, detached and spun down at 4°C. The cell pellet was washed, re-suspended in PBS containing 1% BSA and incubated with 10 µg/mL non-immune rabbit IgGs for 30 min. […] Cells were incubated with an FITC- or PerCP-conjugated goat anti-rabbit secondary antibody (Santa Cruz) diluted 1∶200 and measured in the FL1 (530 nm) or FL3 (670 nm) channel. Cells were analyzed on a FACScalibur flow cytometer (BD Biosciences) operated with the Cell QuestTM software. Samples in which the primary antibodies were omitted were used as control to normalize mean fluorescence levels. […] Each histogram plot was recorded from at least 10,000 gated events.

[2] = tested on: GABAAR (β3^HA) at the plasma membrane, no UT; assay: GABAAR internalization by immunofluorescence in CHO expressing GABAAR alone; conditions: hUII 10^−8 M, Iso 10^−4 M or both
Description: (§3) For double-immunofluorescence, non-permeabilized living CHO cells expressing UT and/or α2β3 ^HAγ2 GABAA receptors were washed two times in PBS, and incubated with monoclonal mouse anti-c-myc and rabbit polyclonal anti-HA (1∶200, Santa-cruz) for 1 h on ice in DMEM. Excess antibody was removed and cells were incubated with the different receptor agonists for 30 min at RT. After several rinses in PBS, cells were fixed in 4% paraformaldehyde at 4°C for 20 min, washed three times in PBS and then incubated at RT for 2 h with appropriate secondary antibodies, i.e. Alexa-488- and 594-conjugated donkey anti-mouse IgGs diluted 1∶300 (Invitrogen). After washing, coverslips were mounted in Eukitt (VWR International, Strasbourg, France).
(§4) All preparations were examined using a confocal laser-scanning microscope (Leica, Heidelberg, Germany) equipped with a Diaplan optical system, a UV laser (excitation wavelength 405 nm) and argon/krypton ion (excitation wavelengths 488/594 nm) laser.

[3] = tested on: GABAAR (β3^HA) at the plasma membrane of CHO co-expressing human UT; assay: GABAAR internalization by immunofluorescence in CHO-UT-GABAAR (α2β3^HAγ2); conditions: hUII 10^−8 M, Iso 10^−4 M or both; 60 min (Figure 9 legend); mean ± SEM, 3 to 18 cells
Description: as §3, with “Excess antibody was removed and cells were incubated with the different receptor agonists for 30 min at RT.” left out
as §4

UT in human U87 glioma = assay: Flow cytometry of cell surface UT in U87 glioma; conditions: hUII 10^−8 M, 30 min
Description: as §1, §2

human UT^c-myc = assay: Cell surface ELISA of UT^c-myc in CHO; conditions: hUII 10^−8 M, 30 min
From the text: For UT epitope-tagged with HA (UT^HA), or c-myc (UT^c-myc), human UT receptor cDNA inserted into pcDNA3.1 (Ressource Center, MI, USA) was amplified and PCR products were subcloned using the EcoRI and XhoI sites of pCMV-HA or pCMV-c-myc. Mutant UT receptor cDNAs were constructed by oligonucleotide-directed mutagenesis (Expand High Fidelity PCR System; Roche) using the human UT receptor cDNA inserted into pcDNA3.1 as a template. Two sets of forward and reverse oligonucleotides were used (Table S2) to introduce stop codons in frame of Leu370, Phe351, Gly332 and Thr319 (to generate UT371, UT351, UT332 and UT319, respectively). PCR products were subcloned using the EcoRI and XhoI sites of pCMV-HA after digestion by the same restriction enzymes. Mutagenesis was confirmed by automated nucleotide sequencing.
Cells were plated at 50 000 cells/well in 96-well plates coated with 0.1 mg/ml poly-L-ornithine (Sigma-Aldrich). […] The cells were washed four times with PBS, a colorimetric alkaline phosphatase substrate was added (SuperSignal ELISA, Thermo scientific, Fisher) and the resulting color reaction was measured using a Viktor multilabel plate reader (PerkinElmer, Courtaboeuf, France). Background absorbance from samples transfected with non-tagged receptors or from cells without first antibodies were systematically measured. […]

Compound	UT at cell surface, human astrocytes [1]	GABAAR internalization without UT [2]	GABAAR endocytosis [3] [%]	UT at cell surface, U87 (UT in human U87 glioma)	Effect on cell membrane amounts of UT^c-myc (human UT^c-myc)
ETPDCFWKYCV (disulfide) [hUII, human urotensin II, synthesized by solid phase methodology]	UT internalized in native astrocytes	failed to induce GABAAR internalization	40.29±4.14	still present at the cell surface in U87	without modifying cell membrane amounts of UT^c-myc
O=C(O)C1=CCNCC1 [Iso, isoguvacine]		remained able to provoke GABAAR removal from the plasma membrane	39.31±2.84		
UII: Urotensin II, species not stated at that place (rUII in astrocytes, hUII in CHO and human cells)	led to UT loss from human astrocyte surface			failed to internalize UT in CHO and U87	failed to internalize UT in CHO and U87
